The values that follow are results of earlier work, collected in patent US20150208691A1, “NOVEL USE OF ALKOXYLATES OF MONO- AND POLYVALENT ALCOHOLS” (AB AGRI LIMITED, priority 2012, published 2015).

The subject of data set [1] is methane emissions. The conditions noted are these: sheep.
Data set [2] deals with methane emissions. The conditions noted are these: cows, compared with sheep.

Where two headings read alike, the source gives them in different places.

For `C=CCS[S+]([O-])CC=C` (centres unmarked) [Allicin], the “reduction of methane emissions” value in the data set with methane emissions [1] is reported as 20%; in the data set on methane emissions [2] it was “not as effective”.
